From the supplement of paper PMC10307832

Legend:
Assay in all cases: relative viability (nuclei count vs DMSO), 5 days (fraction); higher = more cells survive
BX 795 + Foretinib = compound: O=C(NCCCNc1nc(Nc2cccc(NC(=O)N3CCCC3)c2)ncc1I)c1cccs1 [BX 795] + COc1cc2c(Oc3ccc(NC(=O)C4(C(=O)Nc5ccc(F)cc5)CC4)cc3F)ccnc2cc1OCCCN1CCOCC1 [Foretinib] (partner 0.25 µM)
Procedure, shortened: (§1)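 One day after seeding in 1536-well plates, lung cancer cell lines were dosed by pin tool. Dosing was either single-drug or a fixed anchor-drug dose plus five library-drug doses (not always all listed) in √10 steps. After 5 days, nuclei were stained in one fix-and-stain step and counted on 4× images, and relative viability is the nuclei count of treated wells over that of vehicle wells, given as the median of duplicate plates.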

BX 795 + Alpelisib = compound: O=C(NCCCNc1nc(Nc2cccc(NC(=O)N3CCCC3)c2)ncc1I)c1cccs1 [BX 795] + Cc1nc(NC(=O)N2CCC[C@H]2C(N)=O)sc1-c1ccnc(C(C)(C)C(F)(F)F)c1 [Alpelisib] (partner 2 µM)
Procedure, shortened: as §1

BX 795 + Decitabine = compound: O=C(NCCCNc1nc(Nc2cccc(NC(=O)N3CCCC3)c2)ncc1I)c1cccs1 [BX 795] + Nc1ncn([C@H]2C[C@H](O)[C@@H](CO)O2)c(=O)n1 [Decitabine] (partner 2 µM)
Procedure, shortened: as §1

BX 795 + Lapatinib = compound: O=C(NCCCNc1nc(Nc2cccc(NC(=O)N3CCCC3)c2)ncc1I)c1cccs1 [BX 795] + CS(=O)(=O)CCNCc1ccc(-c2ccc3ncnc(Nc4ccc(OCc5cccc(F)c5)c(Cl)c4)c3c2)o1 [Lapatinib] (partner 2 µM)
Procedure, shortened: as §1

BX 795 + Navitoclax = compound: O=C(NCCCNc1nc(Nc2cccc(NC(=O)N3CCCC3)c2)ncc1I)c1cccs1 [BX 795] + CC1(C)CCC(c2ccc(Cl)cc2)=C(CN2CCN(c3ccc(C(=O)NS(=O)(=O)c4ccc(N[C@H](CCN5CCOCC5)CSc5ccccc5)c(S(=O)(=O)C(F)(F)F)c4)cc3)CC2)C1 [Navitoclax] (partner 0.5 µM)
Procedure, shortened: as §1

Row | Cell Line | relative viability (BX 795 + Foretinib; first compound 0.04 µM) | relative viability (BX 795 + Foretinib; first compound 0.1265 µM) | relative viability (BX 795 + Foretinib; first compound 0.4 µM) | relative viability (BX 795 + Foretinib; first compound 1.265 µM) | relative viability (BX 795 + Alpelisib; first compound 0.04 µM) | relative viability (BX 795 + Alpelisib; first compound 0.1265 µM) | relative viability (BX 795 + Alpelisib; first compound 0.4 µM) | relative viability (BX 795 + Alpelisib; first compound 1.265 µM) | relative viability (BX 795 + Decitabine; first compound 0.04 µM) | relative viability (BX 795 + Decitabine; first compound 0.1265 µM) | relative viability (BX 795 + Decitabine; first compound 0.4 µM) | relative viability (BX 795 + Decitabine; first compound 1.265 µM) | relative viability (BX 795 + Lapatinib; first compound 0.04 µM) | relative viability (BX 795 + Lapatinib; first compound 0.1265 µM) | relative viability (BX 795 + Lapatinib; first compound 0.4 µM) | relative viability (BX 795 + Lapatinib; first compound 1.265 µM) | relative viability (BX 795 + Navitoclax; first compound 0.04 µM) | relative viability (BX 795 + Navitoclax; first compound 0.1265 µM) | relative viability (BX 795 + Navitoclax; first compound 0.4 µM) | relative viability (BX 795 + Navitoclax; first compound 1.265 µM)
1 | HCC-78 | 0.665 | 0.537 | 0.596 | 0.5 | 0.406 | 0.337 | 0.39 | 0.303 | 0.913 | 0.664 | 0.825 | 0.653 | 0.93 | 0.585 | 0.604 | 0.732 | 0.857 | 0.926 | 0.792 | 0.718
2 | HCC-366 | 0.973 | 0.959 | 0.94 | 0.235 | 0.462 | 0.432 | 0.291 | 0.113 | 0.332 | 0.371 | 0.31 | 0.255 | 0.834 | 1.11 | 0.858 | 1.12 | 0.865 | 0.977 | 0.74 | 0.823
3 | HCC-827 | 1.18 | 1.12 | 1.09 | 1.04 | 1.02 | 0.975 | 1.02 | 0.924 | 0.416 | 0.327 | 0.387 | 0.303 | 0.186 | 0.18 | 0.215 | 0.191 | 1.1 | 0.974 | 1.05 | 0.908
4 | HOP-62 | 1.04 | 0.967 | 1.37 | 0.923 | 0.901 | 0.643 | 1.24 | 1 | 0.241 | 0.223 | 0.295 | 0.296 | 1.09 | 1.1 | 1.29 | 1.07 | 1.09 | 1.24 | 1.21 | 1.07
5 | IA-LM | 1.15 | 1.19 | 1.28 | 0.628 | 0.844 | 0.636 | 0.614 | 0.666 |  |  |  |  | 0.94 | 0.994 | 1.5 | 0.544 | 0.755 | 0.725 | 0.952 | 0.52
6 | LC-2-ad | 1.12 | 0.867 | 0.981 | 0.808 | 0.959 | 0.89 | 0.654 | 0.268 | 0.777 | 0.835 | 0.74 | 0.611 | 0.89 | 0.962 | 0.7 | 0.274 | 0.503 | 0.448 | 0.467 | 0.213
7 | LCLC-97TM1 | 0.912 | 0.913 | 0.862 | 0.567 | 0.236 | 0.229 | 0.393 | 0.155 | 0.268 | 0.264 | 0.367 | 0.227 | 1.05 | 0.842 | 0.926 | 0.362 | 0.398 | 0.45 | 0.529 | 0.432
8 | LCLC-103H | 0.848 | 0.843 | 0.847 | 0.621 | 0.944 | 1.1 | 1.05 | 1.01 | 0.714 | 0.656 | 0.863 | 0.631 |  |  |  |  |  |  |  | 
9 | LK-2 | 0.937 | 1.51 | 1.31 | 1.1 | 1.1 | 1.07 | 0.952 | 1.03 | 0.447 | 0.266 | 0.294 | 0.271 | 1.02 | 0.912 | 0.83 | 0.797 | 0.873 | 0.876 | 0.787 | 0.608
10 | NCI-H358 | 0.656 | 0.837 | 0.532 | 0.393 | 0.95 | 0.642 | 0.822 | 0.281 | 0.351 | 0.236 | 0.339 | 0.183 | 0.455 | 0.376 | 0.429 | 0.296 |  |  |  | 
11 | NCI-H441 | 1.28 | 0.908 | 1.18 | 0.796 | 0.779 | 0.748 | 1.42 | 0.552 | 0.281 | 0.262 | 0.316 | 0.245 |  |  |  |  | 0.867 | 0.429 | 1.03 | 0.564
12 | NCI-H522 |  |  |  |  |  |  |  |  | 0.556 | 0.657 | 0.73 | 0.71 |  |  |  |  |  |  |  | 
13 | NCI-H650 | 1.06 | 0.935 | 0.927 | 0.911 | 1.09 | 1.07 | 1.02 | 0.7 | 0.458 | 0.299 | 0.458 | 0.357 | 0.86 | 0.873 | 0.952 | 0.689 |  |  |  | 
14 | NCI-H661 | 1.09 | 1.04 | 1.03 | 0.908 | 0.85 | 0.834 | 0.686 | 0.704 | 0.683 | 0.594 | 0.589 | 0.533 | 0.564 | 0.576 | 0.359 | 0.402 |  |  |  | 
15 | NCI-H1563 | 0.914 | 1.04 | 0.925 | 0.848 | 0.964 | 0.859 | 0.917 | 0.811 |  |  |  |  | 1.01 | 1.01 | 1.05 | 0.785 |  |  |  | 
16 | NCI-H1650 | 1.24 | 1.06 | 0.668 | 0.792 |  |  |  |  | 0.571 | 0.471 | 0.548 | 0.644 | 0.938 | 0.737 | 0.671 | 0.521 | 1.17 | 1.12 | 1.41 | 0.649
17 | NCI-H1792 |  |  |  |  | 0.705 | 0.904 | 0.706 | 0.572 | 0.546 |  | 0.588 | 0.408 | 0.872 | 0.903 | 0.981 | 0.842 | 0.624 | 0.556 | 0.708 | 0.568
18 | NCI-H2228 | 1.05 | 0.967 | 1.13 | 0.625 | 0.787 | 0.857 | 0.828 | 0.362 |  |  |  |  | 0.87 | 1.3 | 0.791 | 0.319 | 0.894 | 0.811 | 0.857 | 0.486
19 | NCI-H2342 | 1.17 | 0.896 | 1.07 | 0.914 |  |  |  |  | 0.87 | 0.686 | 0.823 | 0.641 |  |  |  |  |  |  |  | 
20 | SW 900 | 0.938 | 1.04 | 0.968 | 0.569 |  |  |  |  | 0.543 |  | 0.622 | 0.485 |  |  |  |  |  |  |  | 
